{"source": "paper PMC10071493", "about": "(ACS chemical neuroscience, 2021)", "biological_target": "MC-I from the bovine heart (mitochondrial complex I) (Bos taurus, UniProt P25708)", "sequence (P25708 21-464, one chain of several)": "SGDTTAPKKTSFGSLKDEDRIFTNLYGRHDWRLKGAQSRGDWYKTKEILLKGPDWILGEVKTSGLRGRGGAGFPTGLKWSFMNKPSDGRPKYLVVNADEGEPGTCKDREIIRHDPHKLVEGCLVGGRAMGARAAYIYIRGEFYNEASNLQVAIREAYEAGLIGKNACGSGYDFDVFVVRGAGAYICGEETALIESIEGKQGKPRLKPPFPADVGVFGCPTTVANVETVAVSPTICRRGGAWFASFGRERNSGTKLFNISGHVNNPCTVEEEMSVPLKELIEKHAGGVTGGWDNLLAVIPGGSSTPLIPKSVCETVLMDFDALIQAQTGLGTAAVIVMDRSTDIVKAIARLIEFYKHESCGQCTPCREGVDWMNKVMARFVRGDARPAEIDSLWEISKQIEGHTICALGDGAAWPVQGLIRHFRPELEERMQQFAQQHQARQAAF", "test": "microscale thermophoresis, label-free", "format": "binding"}
{"smiles": "COc1ccc2[nH]cc(CCNC(=O)CC(=O)CCc3ccc(F)cc3)c2c1", "note": "[compound 2, 5-(4-Fluorophenyl)-N-(2-(5-methoxy-1H-indol-3-yl)ethyl)-3-oxo-pentanamide]", "values": [{"measurement": "Kd", "value": "~500", "unit": "nM"}]}
